Where two headings read alike, the source gives them in different places.
Experiments:
[1] = tested on: advanced malignancies; assay: Tumor response; type: in vivo, human
[2] = including patients on dialysis; cited from earlier work
[3] = tested on: blood 20S proteasome; assay: Pharmacodynamics: blood 20S proteasome activity; type: in vivo, human
[4] = potent inhibitor of CYP2C19; cited from earlier work
[5] = human, in vivo

## CC(C)C[C@H](NC(=O)[C@H](Cc1ccccc1)NC(=O)c1cnccn1)B(O)O [bortezomib, Bortezomib]
[1]; all hepatic function groups
  Patients achieving stable disease: five
[1]; all patients
  Patients with progressive disease as best response: 35
  Study discontinuation due to disease progression: 37 (61%) n (%)
[1]; mild impairment group
  Study discontinuation due to disease progression: 11 (65%) n (%)
[1]; moderate impairment group
  Study discontinuation due to disease progression: 9 (75%) n (%)
[1]; normal function group
  Study discontinuation due to disease progression: 8 (57%) n (%)
[1]; severe impairment group
  Study discontinuation due to disease progression: 9 (50%) n (%)
[2]
  Pharmacokinetics in varying grades of renal impairment: not altered
[3]; 0.5 mg/m^2, severe hepatic impairment (data not shown)
  Magnitude of percent inhibition of blood 20S proteasome activity: lower than that observed at the higher dose levels
[3]; across dose levels and hepatic function groups, first post-dose time point
  Time of maximum mean percent inhibition of blood 20S proteasome activity: 1 h
[3]; normal hepatic function group, 1.3 mg/m^2, day 1
  Mean percent inhibition of 20S proteasome activity at 24 hours post dose: approximately 31%
All patients
  Deaths during the study: 15
  Died during treatment (reason for study discontinuation): 2 (3%) n (%)
All patients, N=61
  On-study deaths: 15 (25) n (%)
All patients, of 15 deaths
  Deaths due to disease progression: 12
human, in vivo
  Anorexia, any grade: 19 (31) n (%)
  Any AE: 59 (97) n (%)
  Any drug-related AE: 40 (66) n (%)
  Any grade ≥3 AE: 49 (80) n (%)
  Any grade ≥4 AE: 22 (36) n (%)
  Any serious AE: 28 (46) n (%)
  Decreased platelet count, any grade: 18 (30) n (%)
  Decreased platelet count, grade ≥3: 7 (11) n (%)
  Discontinuation due to grade 3 hypotension: 1 patient
  Discontinuation due to grade 4 elevated blood bilirubin: 2 patients
  Dyspnea, any grade: 19 (31) n (%)
  Elevated AST, incidence: 7%
  Elevated blood bilirubin, rate: 7%
  Fatigue, any grade: 31 (51) n (%)
  Fatigue, grade ≥3: 9 (15) n (%)
  Increased AST, grade ≥3: 6 (10) n (%)
  Increased blood bilirubin, grade ≥3: 7 (11) n (%)
  Nausea, any grade: 24 (39) n (%)
  Rate of grade ≥3 AEs: 71%
  Rate of grade ≥4 AEs: 14%
In vivo
  Dose-limiting toxicity (DLT): none of these events met the protocol-defined criteria for DLT
  Relation of elevations in liver function test parameters to drug: not considered to be drug-related
Mild impairment, 1.0 mg/m^2, n=6
  On-study deaths: 0 n (%)
Mild impairment, 1.3 mg/m^2, n=11
  On-study deaths: 4 (36) n (%)
Moderate impairment, 0.7 mg/m^2, n=9
  On-study deaths: 2 (22) n (%)
Moderate impairment, 1.0 mg/m^2, n=3
  On-study deaths: 0 n (%)
Normal hepatic function, 1.3 mg/m^2, N=14
  On-study deaths: 2 (14) n (%)
Severe impairment, 0.5 mg/m^2, n=5
  On-study deaths: 2 (40) n (%)
Severe impairment, 0.7 mg/m^2, n=6
  On-study deaths: 3 (50) n (%)
Severe impairment, 1.0 mg/m^2, n=7
  On-study deaths: 2 (29) n (%)
[4]
  Bortezomib exposure on co-administration of omeprazole: unaffected
[5]
  Disposition kinetics: multi-exponential disposition kinetics
  Dose calculated to match exposures at 1.3 mg/m^2 in normal hepatic function: approximately 0.8 mg/m^2
  Increase in dose-normalized AUC (systemic exposure): approximately 60%
  Increase in mean dose-normalized AUC0-tlast: approximately 60%
  Observed mean increase in dose-normalized AUC relative to normal hepatic function group: 1.6 fold

Reference: PMC3834726 (Clinical cancer research : an official journal of the …, 2012)
